The record followed here is ChEMBL document CHEMBL5385871, “Application and synthesis of thiazole ring in clinically approved drugs” (Eur J Med Chem, 2023).

As usually defined, the IC50 is the concentration at which inhibition is half-maximal. Broadly, the Ki is a measure of affinity in units of concentration, obtained from inhibition or displacement. For orientation: EC50 means the midpoint of the concentration-response curve. What is called bioavailability is dose-corrected exposure relative to a reference, in per cent. One may read the Emax as the maximal effect, on the per cent scale that the assay sets.

One data set relates to Escherichia coli. Nature of the data set: Antibacterial activity against Escherichia coli assessed as bacterial growth inhibition. In kind it is functional.
For another data set, the system named is Streptococcus pneumoniae. Nature of the data set: Antibacterial activity against Streptococcus pneumoniae assessed as bacterial growth inhibition. The format is functional.
The test system of a further data set is Pseudomonas aeruginosa. Description: Antibacterial activity against Pseudomonas aeruginosa assessed as bacterial growth inhibition. In kind it is functional.
Data set [1] is described as follows: Terminal half life in fasted cynomolgus monkey at 3 mg/kg, po measured for 24 hrs by LC-MS/MS analysis. To be noted: in vivo, read-out: beta t1/2 (converted). In kind it is ADME, organism-based, Macaca fascicularis.
Data set [2] can be described thus: Terminal half life in fasted Sprague-Dawley rat at 3 mg/kg, po measured for 24 hrs by LC-MS/MS analysis. In kind it is ADME, organism-based. To be noted: in vivo, read-out: beta t1/2 (converted).
The target in the next data set is Acetylcholinesterase (Homo sapiens, UniProt P22303).
Acetylcholinesterase, sequence (P22303 whole entry): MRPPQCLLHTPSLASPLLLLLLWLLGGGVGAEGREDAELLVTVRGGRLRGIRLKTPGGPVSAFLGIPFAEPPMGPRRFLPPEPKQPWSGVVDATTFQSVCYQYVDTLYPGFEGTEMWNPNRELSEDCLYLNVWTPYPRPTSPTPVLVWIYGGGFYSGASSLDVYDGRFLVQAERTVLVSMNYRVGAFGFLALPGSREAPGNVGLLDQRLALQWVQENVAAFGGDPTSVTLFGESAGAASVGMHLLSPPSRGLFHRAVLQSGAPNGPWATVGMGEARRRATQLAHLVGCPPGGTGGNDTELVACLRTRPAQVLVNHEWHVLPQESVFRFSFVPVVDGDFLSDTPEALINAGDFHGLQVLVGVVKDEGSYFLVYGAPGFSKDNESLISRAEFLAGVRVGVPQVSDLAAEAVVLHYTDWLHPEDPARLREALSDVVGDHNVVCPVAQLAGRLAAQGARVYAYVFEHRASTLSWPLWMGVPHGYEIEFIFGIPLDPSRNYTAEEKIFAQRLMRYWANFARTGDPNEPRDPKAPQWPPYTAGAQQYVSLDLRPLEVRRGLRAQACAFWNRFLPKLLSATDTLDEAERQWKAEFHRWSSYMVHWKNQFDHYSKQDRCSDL
Another data set relates to Streptococcus pyogenes. Nature of the data set: Antibacterial activity against Streptococcus pyogenes assessed as bacterial growth inhibition. The format is functional.
The next data set relates to Haemophilus influenzae. Description: Antibacterial activity against Haemophilus influenzae assessed as bacterial growth inhibition. The format is functional.
Data set [3] can be described thus: Inhibition of PI3Kalpha H1047R mutant (unknown origin). More on the design: species or system Homo sapiens.
Data set [4] deals with T1, Beta-1 adrenergic receptor (Homo sapiens, UniProt P08588). Description: Inhibition of beta-1 adrenoceptor (unknown origin).
T1 sequence (P08588 whole entry): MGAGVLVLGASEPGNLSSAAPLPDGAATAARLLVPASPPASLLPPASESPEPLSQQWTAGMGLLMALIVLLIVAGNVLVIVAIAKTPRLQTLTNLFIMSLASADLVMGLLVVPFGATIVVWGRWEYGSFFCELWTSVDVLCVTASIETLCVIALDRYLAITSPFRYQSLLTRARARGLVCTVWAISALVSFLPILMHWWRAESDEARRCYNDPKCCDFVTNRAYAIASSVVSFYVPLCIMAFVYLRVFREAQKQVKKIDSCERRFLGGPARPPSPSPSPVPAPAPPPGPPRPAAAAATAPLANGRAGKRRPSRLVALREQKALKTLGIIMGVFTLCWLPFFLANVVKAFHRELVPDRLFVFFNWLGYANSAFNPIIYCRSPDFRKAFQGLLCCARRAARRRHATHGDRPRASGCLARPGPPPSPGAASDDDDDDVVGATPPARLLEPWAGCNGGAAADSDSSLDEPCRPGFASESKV
Data set [5] concerns the target T2, Beta-2 adrenergic receptor (Homo sapiens, UniProt P07550). Nature of the data set: Inhibition of beta-2 adrenoceptor (unknown origin).
The next data set has as its system BaF3. Nature of the data set: Induction of cell proliferation of mouse BaF3 cells expressing full-length human TPO receptor by WST-1/1-methoxy PMS assay. In kind it is functional, cell-based. Background: Tetrazolium dyes change colour on reduction, which living cells bring about.
Data set [6] is described as follows: Induction of colony formation of human megakaryocyte from human cord blood CD34-positive cells measured after 10 to 12 days. In kind it is functional, cell-based.
In data set [7] the test system is Staphylococcus epidermidis. Nature of the data set: Antibacterial activity against Staphylococcus epidermidis assessed as bacterial growth inhibition. The format is functional.
Another data set has as its system Staphylococcus aureus. Description: Antibacterial activity against Staphylococcus aureus assessed as bacterial growth inhibition. In kind it is functional.
A further data set concerns Bacteria. Description: Antibacterial activity against aerobic gram-negative bacteria assessed as bacterial growth inhibition. In kind it is functional.
A further data set concerns Enterobacteriaceae. Description: Antibacterial activity against Enterobacteriaceae assessed as bacterial growth inhibition. The format is functional.
Data set [8] in a line: Antibacterial activity against non-fermentative bacteria assessed as bacterial growth inhibition.
For a further data set, the system named is Proteus mirabilis. Nature of the data set: Antibacterial activity against Proteus mirabilis assessed as bacterial growth inhibition. The format is functional.
A further data set has as its system Clostridioides difficile. Description: Antibacterial activity against Clostridium difficile assessed as bacterial growth inhibition. The format is functional.
A further data set relates to Bacteroides fragilis. Description: Antibacterial activity against Bacteroides fragilis assessed as bacterial growth inhibition. The format is functional.
In another data set the test system is Neisseria gonorrhoeae. Description: Antibacterial activity against Neisseria gonorrhoeae assessed as bacterial growth inhibition. The format is functional.
The subject of a further data set is Moraxella catarrhalis. Nature of the data set: Antibacterial activity against Moraxella catarrhalis assessed as bacterial growth inhibition. The format is functional.
Data set [9] in a line: Oral bioavailability in fasted Sprague-Dawley rat at 10 mg/kg administered via gavage measured for 10 hrs by LC/MS/MS analysis. To be noted: in vivo. The format is ADME, organism-based.
The subject of the next data set is WiDr. Description: cells. The following applies: Homo sapiens, 72 h.
For another data set, the system named is K562. Description: cells. To be noted: Homo sapiens, K562, 72 h.
The nature of data set [10]: in vivo. The following applies: Sprague-Dawley, rat, iv, 10 mg/kg.
Description: Half life in fasted Sprague-Dawley rat at 10 mg/kg, iv measured for 10 hrs by LC/MS/MS analysis
Data set [11] in a line: in vivo. The following applies: Sprague-Dawley, rat, po, 10 mg/kg.
Description: Half life in fasted Sprague-Dawley rat at 10 mg/kg, po administered via gavage measured for 10 hrs by LC/MS/MS analysis
Data set [12] has as its target Beta-3 adrenergic receptor (Homo sapiens, UniProt P13945). Nature of the data set: Agonist activity at human beta-3 adrenoceptor expressed in CHO cells assessed as cAMP accumulation incubated for 10 mins by radioimmunoassay. In kind it is functional, cell-based. (cAMP levels reflect the balance of adenylyl cyclase and phosphodiesterase activity.)
Data set [13] deals with T1, Beta-1 adrenergic receptor. Nature of the data set: Agonist activity at human beta-1 adrenoceptor expressed in CHO cells assessed as cAMP accumulation incubated for 10 mins by radioimmunoassay. In kind it is functional, cell-based.
Data set [14] has as its target T2, Beta-2 adrenergic receptor. Description: Agonist activity at human beta-2 adrenoceptor expressed in CHO cells assessed as cAMP accumulation incubated for 10 mins by radioimmunoassay. The format is functional, cell-based.
For a further data set, the system named is Urinary bladder. Nature of the data set: Ex vivo relaxant activity against CCh-induced contraction in rat urinary bladder smooth muscle strips relative to control. The format is functional.
Data set [15] is described as follows: Inhibition of proliferation in Giardia lamblia trophozoites. The format is functional, Giardia duodenalis.
The next data set deals with D(3) dopamine receptor (Homo sapiens, UniProt P35462).
D(3) dopamine receptor, sequence (P35462 whole entry): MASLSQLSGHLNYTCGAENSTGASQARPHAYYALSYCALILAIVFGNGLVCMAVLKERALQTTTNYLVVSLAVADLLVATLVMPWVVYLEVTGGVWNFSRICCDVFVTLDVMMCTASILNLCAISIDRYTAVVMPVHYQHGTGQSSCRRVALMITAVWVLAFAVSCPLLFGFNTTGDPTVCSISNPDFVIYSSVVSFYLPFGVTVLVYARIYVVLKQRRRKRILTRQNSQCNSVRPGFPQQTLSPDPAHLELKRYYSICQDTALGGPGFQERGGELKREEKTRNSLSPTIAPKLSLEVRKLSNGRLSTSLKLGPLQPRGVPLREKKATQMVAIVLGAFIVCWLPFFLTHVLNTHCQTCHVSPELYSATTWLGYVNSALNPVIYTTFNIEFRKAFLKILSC
Data set [16] is described as follows: Inhibition of P-gp-mediated extrusion of [14C]saquinavir in porcine BCEC cells measured after 5 mins by scintillation counting method. The format is cell-based, Sus scrofa. To be noted: brain capillary endothelial cell.

≈ marks a conversion by molar mass, not a printed value. Where a name gives a salt, the structure may show the parent alone. Where only a bound is given, the exact number is not on record here.

T2 sequence (P07550 whole entry): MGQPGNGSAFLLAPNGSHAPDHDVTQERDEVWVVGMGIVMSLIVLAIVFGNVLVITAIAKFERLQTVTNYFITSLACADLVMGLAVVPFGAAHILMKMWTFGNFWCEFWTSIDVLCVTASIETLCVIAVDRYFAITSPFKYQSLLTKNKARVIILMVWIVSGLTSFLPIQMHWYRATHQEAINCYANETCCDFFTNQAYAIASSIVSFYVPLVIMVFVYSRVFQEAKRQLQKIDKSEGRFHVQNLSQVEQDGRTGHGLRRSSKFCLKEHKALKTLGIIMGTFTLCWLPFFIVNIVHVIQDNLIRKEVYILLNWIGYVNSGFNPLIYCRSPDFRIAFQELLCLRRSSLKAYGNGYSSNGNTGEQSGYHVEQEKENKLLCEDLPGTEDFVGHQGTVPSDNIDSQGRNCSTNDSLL
Beta-3 adrenergic receptor, sequence (P13945 whole entry): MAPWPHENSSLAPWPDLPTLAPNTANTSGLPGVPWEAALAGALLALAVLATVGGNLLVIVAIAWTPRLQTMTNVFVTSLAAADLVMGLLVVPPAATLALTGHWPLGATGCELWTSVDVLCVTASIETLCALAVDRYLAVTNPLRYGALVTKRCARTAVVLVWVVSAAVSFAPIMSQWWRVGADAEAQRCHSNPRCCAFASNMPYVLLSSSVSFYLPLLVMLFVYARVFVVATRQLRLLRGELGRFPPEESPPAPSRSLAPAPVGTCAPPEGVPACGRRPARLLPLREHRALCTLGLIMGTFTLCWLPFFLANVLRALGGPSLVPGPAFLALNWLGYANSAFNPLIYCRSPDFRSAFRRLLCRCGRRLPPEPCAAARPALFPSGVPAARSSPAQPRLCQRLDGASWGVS
Description for Acetylcholinesterase: Inhibition of AChE (unknown origin)
Description for D(3) dopamine receptor: Binding affinity to human D3 receptor assessed as inhibition constant
Description for K562: Antiproliferative activity against human K562 cells incubated for 72 hrs by MTT assay
Description for WiDr: Antiproliferative activity against human WiDr cells incubated for 72 hrs by MTT assay

Regarding `CO/N=C(\C(=O)N[C@@H]1C(=O)N2C(C(=O)[O-])=C(C[N+]3(C)CCCC3)CS[C@H]12)c1csc(N)n1`, the MIC was no more than 0.007 µg/mL in the data set with Escherichia coli, 0.007 µg/mL (≈ 0.0146 µM) in the data set with Streptococcus pneumoniae and greater than 0.06 µg/mL with Pseudomonas aeruginosa.

`COc1ccc2c(O[C@@H]3C[C@H]4C(=O)N[C@]5(C(=O)NS(=O)(=O)C6CC6)C[C@H]5/C=C\CCCCN(C)C(=O)[C@@H]4C3)cc(-c3nc(C(C)C)cs3)nc2c1C`: the half-life was 4.1 h in [1] and 1.5 h in data set [2].

For `COc1cc(O)c(C(=O)Nc2nc(C(=O)NCCN(C(C)C)C(C)C)cs2)cc1OC`, 1790 nM corresponded to half-maximal inhibition on Acetylcholinesterase (IC50).

In the case of `C=CC1=C(C(=O)O)N2C(=O)[C@@H](NC(=O)/C(=N\O)c3csc(N)n3)[C@H]2SC1`, the MIC in the data set with Streptococcus pyogenes was no more than 0.004 µg/mL; in the data set with Haemophilus influenzae, 0.05 µg/mL (≈ 0.126 µM); in the data set on Streptococcus pneumoniae, 0.006 µg/mL (≈ 0.0152 µM).

In data set [3], `Cc1nc(NC(=O)N2CCC[C@H]2C(N)=O)sc1-c1ccnc(C(C)(C)C(F)(F)F)c1` [ALPELISIB] showed a concentration for half-maximal inhibition (IC50) of roughly 4 nM.

Take `CC(C)(C)NCC(O)CSc1nc(-c2ccc(C(N)=O)s2)cs1` (centres undefined) [AROTINOLOL]: the results for the Ki in data set [4] and in [5] were 0.182 nM and 0.55 nM, respectively.

Take `O=C(Nc1nc(-c2cc(Cl)cs2)c(N2CCN(C3CCCCC3)CC2)s1)c1cnc(N2CCC(C(=O)O)CC2)c(Cl)c1` [AVATROMBOPAG]: the EC50 came out at 3.3 nM in the data set on BaF3 and 25 nM in data set [6].

As to `C[C@H]1[C@H](NC(=O)/C(=N\OC(C)(C)C(=O)O)c2csc(N)n2)C(=O)N1S(=O)(=O)O` [AZTREONAM], the MIC is 8 µg/mL (≈ 18.4 µM) in [7], no less than 8 µg/mL in the data set on Staphylococcus aureus and no less than 8 µg/mL with Streptococcus pyogenes.

As to `CC(C)(O/N=C(\C(=O)N[C@@H]1C(=O)N2C(C(=O)[O-])=C(C[N+]3(CCNC(=O)c4ccc(O)c(O)c4Cl)CCCC3)CS[C@H]12)c1csc(N)n1)C(=O)O` [CEFIDEROCOL], the MIC (with Bacteria; with Enterobacteriaceae; in [8]) was less than 2 µg/mL in each case.

Take `C=CC1=C(C(=O)O)N2C(=O)[C@@H](NC(=O)/C(=N\OCC(=O)O)c3csc(N)n3)[C@H]2SC1` [CEFIXIME]: the MIC is 0.004 µg/mL (≈ 0.00882 µM) in the data set with Haemophilus influenzae, 0.015 µg/mL (≈ 0.0331 µM) in the data set on Escherichia coli and no more than 0.008 µg/mL in the data set on Proteus mirabilis.

Take `CN(C)CCn1nnnc1SCC1=C(C(=O)O)N2C(=O)[C@@H](NC(=O)Cc3csc(N)n3)[C@H]2SC1` [CEFOTIAM]: the MIC in the data set on Staphylococcus aureus was 0.25 µg/mL (≈ 0.476 µM); with Clostridioides difficile, greater than 128 µg/mL; in the data set on Bacteroides fragilis, no less than 16 µg/mL.

For `COCC1=C(C(=O)O)N2C(=O)[C@@H](NC(=O)/C(=N\OC)c3csc(N)n3)[C@H]2SC1` [CEFPODOXIME], the MIC in the data set with Streptococcus pyogenes is no more than 0.004 µg/mL; in the data set with Haemophilus influenzae, no more than 0.03 µg/mL; with Neisseria gonorrhoeae, 0.004 µg/mL (≈ 0.00936 µM).

With `Nc1nc(/C(=C/CC(=O)O)C(=O)N[C@@H]2C(=O)N3C(C(=O)O)=CCS[C@H]23)cs1` [CEFTIBUTEN], the MIC is 0.015 µg/mL (≈ 0.0365 µM) with Haemophilus influenzae, 0.5 µg/mL (≈ 1.22 µM) with Moraxella catarrhalis and 0.5 µg/mL (≈ 1.22 µM) in the data set with Streptococcus pneumoniae.

Compound `Cc1nc(Nc2ncc(C(=O)Nc3c(C)cccc3Cl)s2)cc(N2CCN(CCO)CC2)n1.O` [DASATINIB] came in with a bioavailability in data set [9] of 27%. Further, the IC50 is less than 1 nM in the data set with WiDr and 52 nM with K562. For the same compound, the half-life at 10 h in “in vivo [10]” was 3.3 h; in the data set “in vivo [11]” it was 3.1 h.

As to `Nc1nc(CC(=O)Nc2ccc(CCNC[C@H](O)c3ccccc3)cc2)cs1` [MIRABEGRON], the concentration for a half-maximal effect (EC50) in data set [12] was 22.4 nM; in [13] it was no less than 10000 nM; in data set [14], no less than 10000 nM. Besides, in the data set with Urinary bladder, the Emax came to 94%.

`CC(=O)Oc1ccccc1C(=O)Nc1ncc([N+](=O)[O-])s1` [NITAZOXANIDE] displayed a 50% inhibitory concentration (IC50) in data set [15] of 2400 nM.

For `CCCN[C@H]1CCc2nc(N)sc2C1` [PRAMIPEXOLE DIHYDROCHLORIDE], on D(3) dopamine receptor, affinity was put at a Ki of 0.5 nM.

As to `CC(C)c1nc(CN(C)C(=O)N[C@H](C(=O)N[C@@H](Cc2ccccc2)C[C@H](O)[C@H](Cc2ccccc2)NC(=O)OCc2cncs2)C(C)C)cs1` [RITONAVIR], in [16], 200 nM corresponded to half-maximal inhibition (IC50).
